Reference: patent US12232496B2, “Methods and system for stimulating root exudation in plants” (YEDA RESEARCH AND DEVELOPMENT CO. LTD, priority 2018, dated 2025)

Tested on: Catharanthus roseus
Test: Split-root Catharanthus roseus seedlings: Root A stimulated, exudates analysed by MRM-LC-MS/MS
Type: in vivo
Settings: applied to Root A; Root B exudate a week after stimulation; FIG. 16B
Protocol: Split roots are generated by cutting off the primary root. Lateral roots are then regenerated until they are long enough for the lateral roots to be placed directly in separate hydroponics or aeroponics containers. Each container is fed with plant medium.
Catharanthus roseus were grown, and split roots were obtained using the methods of Example 2. After lateral roots emerged, roots were aseptically placed separately in two 20 ml glass containers containing 0.5× Hoagland nutrient solution. Similar to Example 8, Root A of seedlings was stimulated with methyl-jasmonate, while growing in hydroponics using plant nutrient medium. Plants were incubated at 24° C. with a photoperiod of 16 h. A week after stimulation, the plant medium containing exudates from Root A and B were collected, filtered and extracted for LC-MS analysis. FIG. 16A depicts the MRM-LC-MS/MS analysis of C. roseus exudates. Vinca alkaloids present in the exudates of Root B after methyl jasmonate stimulation (FIG. 16A, top) and control plants (FIG. 16A, bottom) were analyzed via total ion current chromatograms. The quantification of three vinca alkaloids (19S-Vindolinine_RT_3.93, Vindolinine_RT_4.96, and Catarantine_11.77) was performed using an external standard curve of these three metabolites (FIG. 16B). […]

CC/C=C\CC1C(=O)CCC1CC(=O)OC (stereo not shown) [Methyl jasmonate, methyl jasmonate]
Vindolinine found in Root B exudate of treated plants, fold increase: up to 32 ×
